Measurements from patent US6620938B1, “Compounds that inhibit GRB2-SHC binding and process for preparing same” (Korea Research Institute of Bioscience and Biotechnology, priority 1999, dated 2003).
pIC50: −log10 of the molar value. “And” between values parts separate entries of the source, which are not always exact repeats. Identical values can stand only once.

Legend:
[1] = biological target: T1, Grb2-Shc binding (GST-Grb2 fusion protein, [3H]propionylated-hShc peptide) (Homo sapiens, UniProt P62993); experiment: Grb2-Shc binding inhibition, scintillation proximity assay; conditions: SPA, competition with [3H]propionylated-hShc peptide for GST-Grb2, room temperature 30 minutes, pH 7.4; read-out: concentration required for inhibiting the Grb2-Shc binding by 50% (IC50)
T1 construct: purchased Santa Cruz Biotech Inc
T1 sequence (P62993 whole entry, the tested form may be a part): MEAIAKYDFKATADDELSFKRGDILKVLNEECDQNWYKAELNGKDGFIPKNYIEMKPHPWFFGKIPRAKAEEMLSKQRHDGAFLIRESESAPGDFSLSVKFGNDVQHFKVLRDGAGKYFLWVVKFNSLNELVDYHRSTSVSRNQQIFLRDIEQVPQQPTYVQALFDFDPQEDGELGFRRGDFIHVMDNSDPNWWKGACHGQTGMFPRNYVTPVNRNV
Method: The activity of the inventive compound in inhibiting Grb2-Shc binding was determined in accordance with the scintillation proximity assay method by way of measuring the extents of competitive bindings of [^3H]propionylated-hShc peptide and the inventive compound toward Grb2.
Added to a 1.5 ml eppendorf tube were 10 μl of 0.3 μg GST-Grb2 fusion protein(Santa Cruz Biotech Inc.), 10 μl of SPA PVT antibody-binding beads(Amersham Co.), 10 μl of 0.1 μ Ci [^3H]propionylated-hShc peptide(Amersham Co.), 10 μl of 6 μg anti-GST rabbit IgG(Molecular Probes) and 10 μl of a DMSO solution containing each of the compounds obtained in Example 2 and the total volume was adjusted to 200 μl using SH2 buffer solution(20 mM Tris-HCI, 250 mM NaCl and 0.1% cow serum albumin, pH 7.4). The resulting mixture(sample) was reacted at room temperature for 30 minutes. After the completion of the reaction, the Grb2-Shc binding inhibiting activity was determined by examining the extent of comparative binding of [^3H]propionylated-hShc peptides toward Grb2 proteins, expressed by a unit of count per minute(CPM), with a liquid scintillation counter. The same procedure was repeated in the absence of GST-Grb2(blank) or in the absence of any added compounds(control).
The Grb2-Shc binding inhibiting activity was then calculated in accordance with the following equation: [formula]

[2] = Solubility in solvents (physicochemical characteristics, Table 1)
Excerpt: Based on the above-mentioned spectral data and physicochemical characteristics shown in Table 1, the structures of Compounds(I), (II) and (III) was unequivocally settled. Compounds(II) and (III) are sclerotiorine and isochromopilone, respectively, which are known compounds, while Compound(I) is a novel compound.

[3] = system: phospholipase A2; conditions: reported in the literature; cited from earlier work

SMILES | pIC50 [1] | Insoluble [2] | phospholipase A2 inhibiting activity [3] | Soluble ([2]; solvents in which the compound is soluble)
CCC(C)/C=C(C)/C=C/C1=CC2=C(Cl)C(=O)[C@](C)(OC(C)=O)C(=O)C2=CO1 (stereo partly shown) [Compound(II), sclerotiorine] | ~4.92 and 4.92 | H2O | phospholipase A2 inhibiting activity | –
CCC(C)/C=C(C)/C=C/c1cc2c(cn1)=C(OC)[C@@](C)(OC(C)=O)C(=O)C=2Cl (stereo partly shown) [Compound(I)] | ~5.22 and 5.22 | H2O | – | –
CCC(C)/C=C(C)/C=C/C1=CC2=C(Cl)C(=O)[C@](C)(O)C(OC(C)=O)C2CO1 (stereo partly shown) [Compound(III), isochromopilone IV] | ~4.96 and 4.96 | – | – | CHCl3, EtOAc, and MeOH
